Experimental data taken from patent US8304419B2, “Chemical compounds” (priority 2007, dated 2012).
Where a name gives a salt, the structure may show the parent alone.

The compounds below were run on HIV wild type (WTRVA) (assay: HeLa cell assay, wild type virus (WTRVA)). Settings: Human immunodeficiency virus 1, HeLa, HeLa cell assay; read-out: IC50 against WTRVA.
Type: cell-based, HIV-1
Design: scale not given here

| Compound | IC50 [nM] |
| --- | --- |
| N#Cc1cc(Cl)cc(Oc2c(Br)ccc(CNC(=O)c3[nH]cnc3Cl)c2F)c1 [Example 378, N-({4-bromo-3-[(3-chloro-5-cyanophenyl)oxy]-2-fluorophenyl}methyl)-4-chloro-1H-imidazole-5-carboxamide] | < 10 |
| N#Cc1cc(CN2CCOCC2)cc(Oc2c(Cl)ccc(CNC(=O)c3[nH]cnc3Cl)c2F)c1 [Example 383, 4-chloro-N-[(4-chloro-3-{[3-cyano-5-(4-morpholinylmethyl)phenyl]oxy}-2-fluorophenyl)methyl]-1H-imidazole-5-carboxamide] | < 10 |
| N#Cc1cc(Cl)cc(Oc2c(Cl)ccc(CNC(=O)c3[nH]ccc3Br)c2F)c1 [Example 204, 3-bromo-N-({4-chloro-3-[(3-chloro-5-cyanophenyl)oxy]-2-fluorophenyl}methyl)-1H-pyrrole-2-carboxamide] | < 10 |
| N#Cc1cc(Oc2c(Cl)ccc(CNC(=O)c3[nH]cnc3Cl)c2F)cc(C(F)F)c1 [Example 309, 4-chloro-N-[(4-chloro-3-{[3-cyano-5-(difluoromethyl)phenyl]oxy}-2-fluorophenyl)methyl]-1H-imidazole-5-carboxamide] | < 10 |
| Cc1nc(Cl)c(C(=O)NCc2cc(C#N)c(Cl)c(Oc3cc(Cl)cc(C#N)c3)c2F)[nH]1 [Example 304, 4-chloro-N-({4-chloro-3-[(3-chloro-5-cyanophenyl)oxy]-5-cyano-2-fluorophenyl}methyl)-2-methyl-1H-imidazole-5-carboxamide trifluoroacetate] | < 10 |
| Cc1cc(C#N)cc(Oc2c(Cl)ccc(CNC(=O)c3[nH]cnc3Cl)c2F)c1 [Example 145, 4-chloro-N-({4-chloro-3-[(3-cyano-5-methylphenyl)oxy]-2-fluorophenyl}methyl)-1H-imidazole-5-carboxamide] | < 10 |
| N#Cc1cc(Cl)cc(Oc2c(Br)ccc(CNC(=O)c3[nH]c(CO)nc3Cl)c2F)c1 [Example 241, N-({4-bromo-3-[(3-chloro-5-cyanophenyl)oxy]-2-fluorophenyl}methyl)-4-chloro-2-(hydroxymethyl)-1H-imidazole-5-carboxamide] | < 10 |
| N#Cc1cc(Cl)cc(Oc2c(C(F)F)ccc(CNC(=O)c3[nH]cnc3Cl)c2F)c1 [Example 252, 4-chloro-N-{[3-[(3-chloro-5-cyanophenyl)oxy]-4-(difluoromethyl)-2-fluorophenyl]methyl}-1H-imidazole-5-carboxamide] | < 10 |
| N#Cc1cc(Cl)cc(Oc2c(Cl)ccc(CNC(=O)c3[nH]c(N)nc3Br)c2F)c1 [Example 235, 2-amino-4-bromo-N-({4-chloro-3-[(3-chloro-5-cyanophenyl)oxy]-2-fluorophenyl}methyl)-1H-imidazole-5-carboxamide trifluoroacetate] | < 10 |
| CCc1cc(C#N)cc(Oc2c(Cl)ccc(CNC(=O)c3[nH]c(C)nc3Cl)c2F)n1 [Example 274, 4-Chloro-N-({4-chloro-3-[(4-cyano-6-ethyl-2-pyridinyl)oxy]-2-fluorophenyl}methyl)-2-methyl-1H-imidazole-5-carboxamide] | < 10 |
| Cc1nc(Cl)c(C(=O)NCc2ccc(Cl)c(Oc3cc(C#N)cc(C4CC4)c3)c2F)[nH]1 [Example 308, 4-chloro-N-({4-chloro-3-[(3-cyano-5-cyclopropylphenyl)oxy]-2-fluorophenyl}methyl)-2-methyl-1H-imidazole-5-carboxamide trifluoroacetate] | < 10 |
| Cc1nc(Cl)c(C(=O)NCc2ccc(C(F)F)c(Oc3cc(Cl)cc(C#N)c3)c2F)[nH]1 [Example 254, 4-chloro-N-{[3-[(3-chloro-5-cyanophenyl)oxy]-4-(difluoromethyl)-2-fluorophenyl]methyl}-2-methyl-1H-imidazole-5-carboxamide] | < 10 |

Same assay, conditions: Human immunodeficiency virus 1, HeLa, HeLa-CD4-LTR-β-gal cells, wild type virus; read-out: WTRVA activity level

| Compound | IC50 [nM] |
| --- | --- |
| COc1ccc2[nH]c(C(=O)NCc3ccc(Cl)c(Oc4cc(Cl)cc(C#N)c4)c3F)cc2c1Br [Example 73, 4-bromo-N-({4-chloro-3-[(3-chloro-5-cyanophenyl)oxy]-2-fluorophenyl}methyl)-5-(methyloxy)-1H-indole-2-carboxamide trifluoroacetate] | 10 to 1000 |
| CSc1ncc(C(=O)NCc2ccc(Cl)c(Oc3cc(Cl)cc(C#N)c3)c2F)[nH]1 [Example 66, N-({4-chloro-3-[(3-chloro-5-cyanophenyl)oxy]-2-fluorophenyl}methyl)-2-(methylthio)-1H-imidazole-4-carboxamide trifluoroacetate] | 10 to 1000 |
| N#Cc1cc(Cl)cc(Oc2c(Cl)ccc(CNC(=O)c3cc4cc(OCCN5CCOCC5)ccc4[nH]3)c2F)c1 [Example 103, N-({4-chloro-3-[(3-chloro-5-cyanophenyl)oxy]-2-fluorophenyl}methyl)-5-{[2-(4-morpholinyl)ethyl]oxy}-1H-indole-2-carboxamide] | < 10 |
| CCCc1nc(Cl)c(C(=O)NCc2ccc(Cl)c(Oc3cc(Cl)cc(C#N)c3)c2F)[nH]1 [Example 139, 4-chloro-N-({4-chloro-3-[(3-chloro-5-cyanophenyl)oxy]-2-fluorophenyl}methyl)-2-propyl-1H-imidazole-5-carboxamide] | < 10 |
| COC(=O)c1ccc(C(=O)NCc2ccc(Cl)c(Oc3cc(Cl)cc(C#N)c3)c2F)cc1 [Example 15, Methyl 4-{[({4-chloro-3-[(3-chloro-5-cyanophenyl)oxy]-2-fluorophenyl}methyl)amino]carbonyl}benzoate] | 10 to 1000 |
| N#Cc1cc(Cl)cc(Oc2c(Cl)ccc(CNC(=O)c3ncc[nH]3)c2F)c1 [Example 59, N-({4-chloro-3-[(3-chloro-5-cyanophenyl)oxy]-2-fluorophenyl}methyl)-1H-imidazole-2-carboxamide trifluoroacetate] | < 10 |
| N#Cc1cc(Cl)cc(Oc2c(Cl)ccc(CNC(=O)c3cc4cc(Br)ccc4[nH]3)c2F)c1 [Example 29, 5-bromo-N-({4-chloro-3-[(3-chloro-5-cyanophenyl)oxy]-2-fluorophenyl}methyl)-1H-indole-2-carboxamide] | 10 to 1000 |
| CC(O)CCOc1ccc2[nH]c(C(=O)NCc3ccc(Cl)c(Oc4cc(Cl)cc(C#N)c4)c3F)cc2c1 (centres unmarked) [Example 106, N-({4-chloro-3-[(3-chloro-5-cyanophenyl)oxy]-2-fluorophenyl}methyl)-5-[(3-hydroxybutyl)oxy]-1H-indole-2-carboxamide] | < 10 |
| Cc1c(C(=O)NCc2ccc(Cl)c(Oc3cc(Cl)cc(C#N)c3)c2F)oc2ccccc12 [Example 48, N-({4-chloro-3-[(3-chloro-5-cyanophenyl)oxy]-2-fluorophenyl}methyl)-3-methyl-1-benzofuran-2-carboxamide trifluoroacetate] | 10 to 1000 |
| Cn1c(C(=O)NCc2ccc(Cl)c(Oc3cc(Cl)cc(C#N)c3)c2F)cc2ccccc21 [Example 45, N-({4-chloro-3-[(3-chloro-5-cyanophenyl)oxy]-2-fluorophenyl}methyl)-1-methyl-1H-indole-2-carboxamide] | 10 to 1000 |
| Cc1c(C(=O)NCc2ccc(Cl)c(Oc3cc(Cl)cc(C#N)c3)c2F)[nH]c2ccccc12 [Example 39, N-({4-chloro-3-[(3-chloro-5-cyanophenyl)oxy]-2-fluorophenyl}methyl)-3-methyl-1H-indole-2-carboxamide] | < 10 |
| COc1ccc2cc(C(=O)NCc3ccc(Cl)c(Oc4cc(Cl)cc(C#N)c4)c3F)[nH]c2c1 [Example 21, N-({4-chloro-3-[(3-chloro-5-cyanophenyl)oxy]-2-fluorophenyl}methyl)-6-(methyloxy)-1H-indole-2-carboxamide] | 10 to 1000 |
| N#Cc1cc(Cl)cc(Oc2c(Cl)ccc(CNC(=O)c3cc4ccc(OCc5ccccc5)cc4[nH]3)c2F)c1 [Example 43, N-({4-chloro-3-[(3-chloro-5-cyanophenyl)oxy]-2-fluorophenyl}methyl)-6-[(phenylmethyl)oxy]-1H-indole-2-carboxamide] | 10 to 1000 |
| N#Cc1cc(Cl)cc(Oc2c(Cl)ccc(CNC(=O)c3cc4cc(NC(=O)CN)ccc4[nH]3)c2F)c1 [Example 120, N-({4-chloro-3-[(3-chloro-5-cyanophenyl)oxy]-2-fluorophenyl}methyl)-5-(glycylamino)-1H-indole-2-carboxamide trifluoroacetate] | < 10 |
| COc1ccc2c(C(=O)NCc3ccc(Cl)c(Oc4cc(Cl)cc(C#N)c4)c3F)c[nH]c2c1 [Example 18, N-({4-chloro-3-[(3-chloro-5-cyanophenyl)oxy]-2-fluorophenyl}methyl)-6-(methyloxy)-1H-indole-3-carboxamide] | 10 to 1000 |
| N#Cc1cc(Cl)cc(Oc2c(Cl)ccc(CNC(=O)c3cc4cc(O)ccc4[nH]3)c2F)c1 [Example 26, N-({4-chloro-3-[(3-chloro-5-cyanophenyl)oxy]-2-fluorophenyl}methyl)-5-hydroxy-1H-indole-2-carboxamide] | < 10 |
| CN(C)CCCOc1ccc2[nH]c(C(=O)NCc3ccc(Cl)c(Oc4cc(Cl)cc(C#N)c4)c3F)cc2c1 [Example 102, N-({4-chloro-3-[(3-chloro-5-cyanophenyl)oxy]-2-fluorophenyl}methyl)-5-{[3-(dimethylamino)propyl]oxy}-1H-indole-2-carboxamide] | < 10 |
| COc1ccc(C(=O)NCc2ccc(Cl)c(Oc3cc(Cl)cc(C#N)c3)c2F)c(C)c1 [Example 17, N-({4-chloro-3-[(3-chloro-5-cyanophenyl)oxy]-2-fluorophenyl}methyl)-2-methyl-4-(methyloxy)benzamide] | 10 to 1000 |
| CCc1c(C(=O)NCc2ccc(Cl)c(Oc3cc(Cl)cc(C#N)c3)c2F)[nH]c2ccc(OC)cc12 [Example 81, N-({4-chloro-3-[(3-chloro-5-cyanophenyl)oxy]-2-fluorophenyl}methyl)-3-ethyl-5-(methyloxy)-1H-indole-2-carboxamide trifluoroacetate] | 10 to 1000 |
| N#Cc1cc(Cl)cc(Oc2c(Cl)ccc(CNC(=O)c3cc4cc(N)ccc4[nH]3)c2F)c1 [Example 111, 5-amino-N-({4-chloro-3-[(3-chloro-5-cyanophenyl)oxy]-2-fluorophenyl}methyl)-1H-indole-2-carboxamide trifluoroacetate] | < 10 |
